Consider one molecule from patent publication US10308700B2, “GLP-1 derivatives” (Novo Nordisk A/S, priority 2011, dated 2019).

The target of the assay is T1, human GLP-1 receptor (Homo sapiens, UniProt P43220).
T1 construct: expressed in transfected cells; host or cells: BHK467-12A (tk-ts13), baby hamster kidney; purified plasma membranes
As to the kind of experiment: In vitro potency (CRE luciferase; whole cells). The class given is cell-based.

T1 sequence (P43220 24-463): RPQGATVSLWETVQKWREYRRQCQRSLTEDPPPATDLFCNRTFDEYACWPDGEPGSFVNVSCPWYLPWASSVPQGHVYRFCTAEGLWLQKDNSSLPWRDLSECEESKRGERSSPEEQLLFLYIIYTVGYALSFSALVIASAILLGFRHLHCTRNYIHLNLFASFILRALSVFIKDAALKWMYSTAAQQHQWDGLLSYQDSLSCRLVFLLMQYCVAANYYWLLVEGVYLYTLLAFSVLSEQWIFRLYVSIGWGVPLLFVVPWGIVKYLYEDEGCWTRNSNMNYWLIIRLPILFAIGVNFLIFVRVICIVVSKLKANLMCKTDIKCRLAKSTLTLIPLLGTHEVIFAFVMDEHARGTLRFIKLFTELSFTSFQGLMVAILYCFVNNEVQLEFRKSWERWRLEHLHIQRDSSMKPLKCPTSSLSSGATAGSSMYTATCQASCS
Procedure: The purpose of this example is to test the activity, or potency, of the GLP-1 derivatives in vitro. The in vitro potency is the measure of human GLP-1 receptor activation in a whole cell assay.
In vitro potency was determined by measuring the response of human GLP-1 receptor in a reporter gene assay. The assay was performed in a stably transfected BHK cell line that expresses the human GLP-1 receptor and contains the DNA for the cAMP response element (CRE) coupled to a promoter and the gene for firefly luciferase (CRE luciferase). When the human GLP-1 receptor was activated it results in the production of cAMP, which in turn results in the luciferase protein being expressed. When assay incubation was completed the luciferase substrate (luciferin) was added and the enzyme converts luciferin to oxyluciferin and produces bioluminescence. The luminescence was measured and was the readout for the assay.
The cells were cultured at 5% CO2 in cell culture medium. They were aliquoted and stored in liquid nitrogen. Before each assay an aliquot was taken up and washed twice in PBS before being suspended at the desired concentration in the assay specific buffer.
• 1) Cell stocks were thawed in a 37° C. water bath. • 2) Cells were washed three times in PBS. • 3) The cells were counted and adjusted to 5×10^3 cells/50 μl (1×10^5 cells/ml) in assay medium. […]

Usually EC50 stands for the concentration needed to bring the measured effect to its halfway point. As to `CC[C@H](C)[C@H](NC(=O)[C@H](Cc1ccccc1)NC(=O)[C@H](CCC(=O)O)NC(=O)[C@H](CCCCNC(=O)[C@@H](N)CCCCNC(=O)[C@H](CO)NC(=O)CNC(=O)[C@H](CO)NC(=O)CC[C@H](NC(=O)CCCCCCCCCCCOc1ccc(C(=O)O)cc1)C(=O)O)NC(=O)[C@H](C)NC(=O)[C@H](C)NC(=O)[C@H](CCC(N)=O)NC(=O)CNC(=O)[C@H](CCC(=O)O)NC(=O)[C@H](CC(C)C)NC(=O)[C@H](Cc1ccc(O)cc1)NC(=O)[C@H](CO)NC(=O)[C@H](CO)NC(=O)[C@@H](NC(=O)[C@H](CC(=O)O)NC(=O)[C@H](CO)NC(=O)[C@@H](NC(=O)[C@H](Cc1ccccc1)NC(=O)[C@@H](NC(=O)CNC(=O)[C@H](CCC(=O)O)NC(=O)C(C)(C)NC(=O)[C@@H](N)Cc1c[nH]cn1)[C@@H](C)O)[C@@H](C)O)C(C)C)C(=O)N[C@@H](C)C(=O)N[C@@H](Cc1c[nH]c2ccccc12)C(=O)N[C@@H](CC(C)C)C(=O)N[C@H](C(=O)N[C@@H](CCCNC(=N)N)C(=O)NCC(=O)N[C@@H](CCCNC(=N)N)C(=O)N[C@@H](CCCCNC(=O)[C@@H](N)CCCCNC(=O)[C@H](CO)NC(=O)CNC(=O)[C@H](CO)NC(=O)CC[C@H](NC(=O)CCCCCCCCCCCOc1ccc(C(=O)O)cc1)C(=O)O)C(=O)O)C(C)C` [Example 29], the EC50 worked out at 5 pM.
